Assay results: PubChem BioAssay (NCI)
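A five-concentration, 48-hour dose response in 96-well plates underlies each endpoint, interpolated linearly between surrounding concentrations. TGI is the concentration that stops growth completely.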

Tests used:
Assay in all cases: NCI tumour cell line growth inhibition, 48 h
786-0 renal = test system: 786-0 renal
A498 renal = test system: A498 renal
A549 NSCLC = test system: A549 NSCLC
ACHN renal = test system: ACHN renal
CAKI-1 renal = test system: CAKI-1 renal
CCRF-CEM leukemia = test system: CCRF-CEM leukemia
COLO 205 colon = test system: COLO 205 colon
DU-145 prostate = test system: DU-145 prostate
EKVX NSCLC = test system: EKVX NSCLC
HCC-2998 colon = test system: HCC-2998 colon
HCT-116 colon = test system: HCT-116 colon
HCT-15 colon = test system: HCT-15 colon
HL-60(TB) leukemia = test system: HL-60(TB) leukemia
HOP-62 NSCLC = test system: HOP-62 NSCLC
HOP-92 NSCLC = test system: HOP-92 NSCLC
HS 578T breast = test system: HS 578T breast
HT29 colon = test system: HT29 colon
IGROV1 ovarian = test system: IGROV1 ovarian
K-562 leukemia = test system: K-562 leukemia
KM12 colon = test system: KM12 colon
LOX IMVI melanoma = test system: LOX IMVI melanoma
M14 melanoma = test system: M14 melanoma
MALME-3M melanoma = test system: MALME-3M melanoma
MCF7 breast = test system: MCF7 breast
MDA-MB-231 breast = test system: MDA-MB-231 breast
MDA-MB-435 = test system: MDA-MB-435
MDA-N = test system: MDA-N
MOLT-4 leukemia = test system: MOLT-4 leukemia
NCI-H226 lung = test system: NCI-H226 lung
NCI-H23 lung = test system: NCI-H23 lung
NCI-H460 lung = test system: NCI-H460 lung
NCI-H522 lung = test system: NCI-H522 lung
NCI/ADR-RES ovarian = test system: NCI/ADR-RES ovarian
OVCAR-3 ovarian = test system: OVCAR-3 ovarian
OVCAR-4 ovarian = test system: OVCAR-4 ovarian
OVCAR-5 ovarian = test system: OVCAR-5 ovarian
OVCAR-8 ovarian = test system: OVCAR-8 ovarian
PC-3 prostate = test system: PC-3 prostate
RPMI-8226 leukemia = test system: RPMI-8226 leukemia
RXF 393 renal = test system: RXF 393 renal
SF-268 CNS = test system: SF-268 CNS
SF-295 CNS = test system: SF-295 CNS
SF-539 CNS = test system: SF-539 CNS
SK-MEL-2 melanoma = test system: SK-MEL-2 melanoma
SK-MEL-28 melanoma = test system: SK-MEL-28 melanoma
SK-MEL-5 melanoma = test system: SK-MEL-5 melanoma
SK-OV-3 ovarian = test system: SK-OV-3 ovarian
SN12C renal = test system: SN12C renal
SNB-19 CNS = test system: SNB-19 CNS
SNB-75 CNS = test system: SNB-75 CNS
SR leukemia = test system: SR leukemia
SW-620 colon = test system: SW-620 colon
T-47D breast = test system: T-47D breast
TK-10 renal = test system: TK-10 renal
U251 CNS = test system: U251 CNS
UACC-62 melanoma = test system: UACC-62 melanoma
UO-31 renal = test system: UO-31 renal

Measured: TGI

OC1c2ccccc2CCC1C(O)(C(F)(F)F)C(F)(F)F (configuration not stated)
> 100 µM: 786-0 renal | A498 renal | A549 NSCLC | ACHN renal | CAKI-1 renal | CCRF-CEM leukemia | COLO 205 colon | DU-145 prostate | EKVX NSCLC | HCC-2998 colon | HCT-116 colon | HCT-15 colon | HL-60(TB) leukemia | HOP-62 NSCLC | HOP-92 NSCLC | HS 578T breast | HT29 colon | IGROV1 ovarian | K-562 leukemia | KM12 colon | LOX IMVI melanoma | M14 melanoma | MALME-3M melanoma | MCF7 breast | MDA-MB-231 breast | MDA-MB-435 | MDA-N | MOLT-4 leukemia | NCI-H226 lung | NCI-H23 lung | NCI-H460 lung | NCI-H522 lung | NCI/ADR-RES ovarian | OVCAR-3 ovarian | OVCAR-4 ovarian | OVCAR-5 ovarian | OVCAR-8 ovarian | PC-3 prostate | RPMI-8226 leukemia | RXF 393 renal | SF-268 CNS | SF-295 CNS | SF-539 CNS | SK-MEL-2 melanoma | SK-MEL-28 melanoma | SK-MEL-5 melanoma | SK-OV-3 ovarian | SN12C renal | SNB-19 CNS | SNB-75 CNS | SR leukemia | SW-620 colon | T-47D breast | TK-10 renal | U251 CNS | UACC-62 melanoma | UO-31 renal
